ChEMBL document CHEMBL3885861, “Open TG-GATES”

Species on record: Rattus norvegicus
Test: Open TG-GATES - Regimen: Single
Assay type: toxicity, organism-based, Sprague-Dawley
Design: regimen Single, gender Male, age 6 weeks
Conditions: in vivo, po, 0 mg/kg, route gavage, dose level Control; for APTT / Bas / Eos / Fbg / Hb / Ht / Lym / MCH / MCHC / MCV / Mono / Neu / PT / Plat / RBC / Ret / WBC: tissue Blood; for KIDNEY_L / KIDNEY_R / KIDNEY_TOTAL: tissue Kidney; for LIVER: tissue Liver; for ALP / ALT / AST / BUN / CRE / DBIL / GLC / K / Na / PL / RALB / TBIL / TC / TG / TP / gamma-GTP: tissue Plasma

Structure (SMILES): CN1C(=O)CN=C(c2ccccc2)c2cc(Cl)ccc21 [DIAZEPAM]
- TERMINAL_BW (3 h): 214.4 g
- APTT (3 h): 15.9 s
- Bas (3 h): 0%
- Eos (3 h): 1%
- Fbg (3 h): 213.4 mg/dL
- Hb (3 h): 13.5 g/dL
- Ht (3 h): 40.5%
- Lym (3 h): 71.2%
- MCH (3 h): 22.3 pg
- MCHC (3 h): 33.3%
- MCV (3 h): 66.9 fL
- Mono (3 h): 8.6%
- Neu (3 h): 19.6%
- PT (3 h): 12.4 s
- Plat (3 h): 101 x10_4/uL
- RBC (3 h): 606 x10_4/ul
- Ret (3 h): 8.2%
- WBC (3 h): 109.8 x10_2/uL
- KIDNEY_L (3 h): 1 g
- KIDNEY_R (3 h): 1 g
- KIDNEY_TOTAL (3 h): 2 g
- LIVER (3 h): 10.2 g
- ALP (3 h): 836.4 IU/L
- ALT (3 h): 31.8 IU/L
- AST (3 h): 66.6 IU/L
- BUN (3 h): 14.2 mg/dL
- CRE (3 h): 0.5 mg/dL
- DBIL (3 h): 0.028 mg/dL
- GLC (3 h): 187.4 mg/dL
- K (3 h): 5.2 meq/L
- Na (3 h): 138.8 meq/L
- PL (3 h): 131.6 mg/dL
- RALB (3 h): 3.7 g/dL
- TBIL (3 h): 0.4 mg/dL
- TC (3 h): 71 mg/dL
- TG (3 h): 52.2 mg/dL
- TP (3 h): 5.5 g/dL
- gamma-GTP (3 h): 1.8 IU/L
- TERMINAL_BW (6 h): 213 g
- APTT (6 h): 16.6 s
- Bas (6 h): 0%
- Eos (6 h): 0.6%
- Fbg (6 h): 216 mg/dL
- Hb (6 h): 13.8 g/dL
- Ht (6 h): 41.8%
- Lym (6 h): 77.2%
- MCH (6 h): 21.4 pg
- MCHC (6 h): 33.1%
- MCV (6 h): 64.6 fL
- Mono (6 h): 6.4%
- Neu (6 h): 15.8%
- PT (6 h): 12.6 s
- Plat (6 h): 106.4 x10_4/uL
- RBC (6 h): 647 x10_4/ul
- Ret (6 h): 8.5%
- WBC (6 h): 105.2 x10_2/uL
- KIDNEY_L (6 h): 1 g
- KIDNEY_R (6 h): 1 g
- KIDNEY_TOTAL (6 h): 2 g
- LIVER (6 h): 9.6 g
- ALP (6 h): 878 IU/L
- ALT (6 h): 29.6 IU/L
- AST (6 h): 60 IU/L
- BUN (6 h): 9.8 mg/dL
- CRE (6 h): 0.5 mg/dL
- DBIL (6 h): 0.016 mg/dL
- GLC (6 h): 203 mg/dL
- K (6 h): 4.9 meq/L
- Na (6 h): 138.6 meq/L
- PL (6 h): 140 mg/dL
- RALB (6 h): 3.7 g/dL
- TBIL (6 h): 0.3 mg/dL
- TC (6 h): 74.8 mg/dL
- TG (6 h): 84.2 mg/dL
- TP (6 h): 5.6 g/dL
- gamma-GTP (6 h): 1.2 IU/L
- TERMINAL_BW (9 h): 212.8 g
- APTT (9 h): 15.7 s
- Bas (9 h): 0%
- Eos (9 h): 0.8%
- Fbg (9 h): 215.4 mg/dL
- Hb (9 h): 13.6 g/dL
- Ht (9 h): 41.5%
- Lym (9 h): 79.2%
- MCH (9 h): 21.7 pg
- MCHC (9 h): 32.8%
- MCV (9 h): 66 fL
- Mono (9 h): 5.6%
- Neu (9 h): 14.4%
- PT (9 h): 12.7 s
- Plat (9 h): 101.7 x10_4/uL
- RBC (9 h): 628.4 x10_4/ul
- Ret (9 h): 8.2%
- WBC (9 h): 117.7 x10_2/uL
- KIDNEY_L (9 h): 1 g
- KIDNEY_R (9 h): 1 g
- KIDNEY_TOTAL (9 h): 2 g
- LIVER (9 h): 9 g
- ALP (9 h): 712.4 IU/L
- ALT (9 h): 29 IU/L
- AST (9 h): 59.8 IU/L
- BUN (9 h): 10.6 mg/dL
- CRE (9 h): 0.6 mg/dL
- DBIL (9 h): 0.038 mg/dL
- GLC (9 h): 204 mg/dL
- K (9 h): 4.8 meq/L
- Na (9 h): 138.6 meq/L
- PL (9 h): 130.4 mg/dL
- RALB (9 h): 3.7 g/dL
- TBIL (9 h): 0.4 mg/dL
- TC (9 h): 75 mg/dL
- TG (9 h): 41.6 mg/dL
- TP (9 h): 5.5 g/dL
- gamma-GTP (9 h): 1.8 IU/L
- TERMINAL_BW (24 h): 227.4 g
- APTT (24 h): 16.7 s
- Bas (24 h): 0%
- Eos (24 h): 1%
- Fbg (24 h): 210.2 mg/dL
- Hb (24 h): 13.7 g/dL
- Ht (24 h): 41%
- Lym (24 h): 81.6%
- MCH (24 h): 21.9 pg
- MCHC (24 h): 33.4%
- MCV (24 h): 65.8 fL
- Mono (24 h): 5.8%
- Neu (24 h): 12.2%
- PT (24 h): 12.2 s
- Plat (24 h): 108.9 x10_4/uL
- RBC (24 h): 624.2 x10_4/ul
- Ret (24 h): 7.7%
- WBC (24 h): 114.5 x10_2/uL
- KIDNEY_L (24 h): 1.1 g
- KIDNEY_R (24 h): 1 g
- KIDNEY_TOTAL (24 h): 2.1 g
- LIVER (24 h): 11.2 g
- ALP (24 h): 817.8 IU/L
- ALT (24 h): 33.4 IU/L
- AST (24 h): 58.4 IU/L
- BUN (24 h): 15.2 mg/dL
- CRE (24 h): 0.5 mg/dL
- DBIL (24 h): 0.006 mg/dL
- GLC (24 h): 191.2 mg/dL
- K (24 h): 5.1 meq/L
- Na (24 h): 138.6 meq/L
- PL (24 h): 131.8 mg/dL
- RALB (24 h): 3.9 g/dL
- TBIL (24 h): 0.3 mg/dL
- TC (24 h): 63.2 mg/dL
- TG (24 h): 112.8 mg/dL
- TP (24 h): 5.8 g/dL
- gamma-GTP (24 h): 1 IU/L
